Test results from patent publication US4223032A, “Triazolo [4,5-b] quinolines and prophylaxis of allergic diseases with them” (Beecham Group Limited, priority 1977, dated 1980).

Test system: passive cutaneous anaphylaxis (PCA)
Experiment: Passive Cutaneous Anaphylaxis (PCA)
Format: in vivo, Male Wistar rats
Conditions: rat, i.v., carrier PBS with NaHCO3, time 0 mins before antigen challenge
Protocol: Passive Cutaneous Anaphylaxis (PCA)
Serum containing heat labile homocytotropic antibody was raised in rats to crystallized ovalbumin XOA by the method of Mota (I. Mota, Immunology, 7,681 [1964] using Bordettela pertussis vaccine as adjuvant.
Passive cutaneous anaphylaxis (PCA) was carried out by a method based on that of Ovary and Bier, (A. Ovary and O. G. Bier, Proc. Soc. Exp. Biol. Med. 81, 584, [1952]) as modified by Goose and Blair. (Immunology 16, 749 [1969]).
Male Wistar rats of 250-300 g. were given 0.1 ml. of each of six twofold serial dilutions of pooled antiserum in 0.9% saline injected intradermally into separate sites on their shaved backs. Later (72 hrs.) the animals were challenged by intravenous injection of 0.3 ml. of a 1% solution of ovalbumin in an isotonic solution of saline buffered with 0.05 M, pH 7.2, Sorenson Buffer (PBS), mixed with 0.2 ml. of a 5% solution of Pontamine Sky Blue (6BX C.I. 24410, Raymond A. Lamb, London) in isotonic saline. The rats were killed after 20 min and the diameter of the blue wheals at the antibody injection sites was measured on the outer surface of the skin. The starting dilution of the serum was adjusted so that there was no response, after challenge, at the injection site of the highest dilution and a maximum response at the lowest dilutions. Typically six twofold serial dilutions of the serum from 1/4 to 1/128 were used.
Compounds were tested for their ability to reduce the diameter of the wheals at those intradermal sites which in control animals gave less than maximum response. Each dose of the compound was administered to six rats at a measured time prior to intravenous challenge with ovalbumin. Control groups of six rats were given the same volume (0.2 ml/100 g) of carrier fluid at the same time prior to the challenge.
The results were calculated as follows. % inhibition of PCA=100 (1-a/b) where a=the sum of the diameters of the wheals produced in the test animal at the sites of antibody dilutions as used in control groups and b=the mean sum of the diameters of the wheals produced in the control group of animals at those antibody sites where at least five out of six of the animals gave less than maximum response. A typical variation in the control group of animals was SEM± 6%.

SMILES | % Inhib PCA (2 mg/kg) [%] | % Inhib PCA (4 mg/kg) [%] | % Inhib PCA (10 mg/kg) [%] | % Inhib PCA (5 mg/kg) [%] | % Inhib PCA (20 mg/kg) [%]
O=c1c2ccccc2[nH]c2nn[nH]c12 [Example 1, 4,9-Dihydro-9-oxo-1H-triazolo[4,5-b] quinoline] | 14 | 22 | 79 |  | 
Cc1ccc2[nH]c3nn[nH]c3c(=O)c2c1 [Example 2, 4,9-dihydro-7-methyl-9-oxo-1H-triazolo[4,5-b] quinoline] |  |  | 65 | 16 | 
O=c1c2cc(Cl)ccc2[nH]c2nn[nH]c12 [Example 3, 7-Chloro-4,9-dihydro-9-oxo-1H-triazolo[4,5-b] quinoline] |  |  |  | 36 | 70
